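Interpolation was linear, between the two tested concentrations surrounding the appropriate level; five concentrations were tested over 48 hours in 96-well plates. Here, GI50 denotes the concentration required for 50% inhibition of growth.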 Activity calls are given as the source filed them. Cut-off read from the data, not from the text of the source: active = GI50 up to about 1.1 µM and inactive = higher.
What was measured:
Test in all cases: NCI tumour cell line growth inhibition, 48 h
786-0 = system: 786-0
A498 = system: A498
A549 = system: A549
ACHN = system: ACHN
BT-549 = system: BT-549
CAKI-1 = system: CAKI-1
CCRF-CEM = system: CCRF-CEM
COLO 205 = system: COLO 205
DU-145 = system: DU-145
EKVX = system: EKVX
HCC 2998 = system: HCC 2998
HCT-116 = system: HCT-116
HCT-15 = system: HCT-15
HL-60 = system: HL-60
HOP-62 = system: HOP-62
HOP-92 = system: HOP-92
HT-29 = system: HT-29
Hs-578T = system: Hs-578T
IGROV-1 = system: IGROV-1
K562 = system: K562
KM12 = system: KM12
LOX IMVI = system: LOX IMVI
M14 = system: M14
MCF7 = system: MCF7
MDA-MB-231 = system: MDA-MB-231
MDA-MB-435 = system: MDA-MB-435
MDA-N = system: MDA-N
MOLT-4 = system: MOLT-4
Malme-3M = system: Malme-3M
NCI-H226 = system: NCI-H226
NCI-H23 = system: NCI-H23
NCI-H460 = system: NCI-H460
NCI-H522 = system: NCI-H522
NCI/ADR-RES = system: NCI/ADR-RES
OVCAR-3 = system: OVCAR-3
OVCAR-4 = system: OVCAR-4
OVCAR-5 = system: OVCAR-5
OVCAR-8 = system: OVCAR-8
PC-3 = system: PC-3
RPMI-8226 = system: RPMI-8226
RXF 393 = system: RXF 393
SF-268 = system: SF-268
SF-295 = system: SF-295
SF-539 = system: SF-539
SK-MEL-28 = system: SK-MEL-28
SK-MEL-2 = system: SK-MEL-2
SK-MEL-5 = system: SK-MEL-5
SK-OV-3 = system: SK-OV-3
SN12C = system: SN12C
SNB-19 = system: SNB-19
SNB-75 = system: SNB-75
SR = system: SR
SW-620 = system: SW-620
T47D = system: T47D
TK-10 = system: TK-10
U-251 = system: U-251
UACC-257 = system: UACC-257
UACC-62 = system: UACC-62
UO-31 = system: UO-31

Question: `Cc1c(-c2ccccc2)c(-c2ccc(OCCN(C)C)cc2)n2ccccc12` was tested. Which GI50 (786-0) did it give?
Answer: 7.11 µM (inactive)

Question: And the GI50 (A498)?
Answer: 14.8 µM (inactive)

Question: What about the GI50 (A549) of the same molecule?
Answer: 13.9 µM (inactive)

Question: And the GI50 (ACHN)?
Answer: 13.9 µM (inactive)

Question: What about the GI50 (BT-549) of the same molecule?
Answer: 5.65 µM (inactive)

Question: What about the GI50 (CAKI-1) of the same molecule?
Answer: 11.2 µM (inactive)

Question: What about the GI50 (CCRF-CEM) of the same molecule?
Answer: 3.72 µM (inactive)

Question: And the GI50 (COLO 205)?
Answer: 1.64 µM (inactive)

Question: What about the GI50 (DU-145) of the same molecule?
Answer: 13.3 µM (inactive)

Question: And the GI50 (EKVX)?
Answer: 15.3 µM (inactive)

Question: And the GI50 (HCC 2998)?
Answer: 1.69 µM (inactive)

Question: And the GI50 (HCT-116)?
Answer: 5.61 µM (inactive)

Question: What about the GI50 (HCT-15) of the same molecule?
Answer: 2.55 µM

Question: What about the GI50 (HL-60) of the same molecule?
Answer: 3.67 µM (inactive)

Question: What about the GI50 (HOP-62) of the same molecule?
Answer: 13.1 µM (inactive)

Question: What about the GI50 (HOP-92) of the same molecule?
Answer: 8.59 µM (inactive)

Question: What about the GI50 (HT-29) of the same molecule?
Answer: 1.82 µM (inactive)

Question: What about the GI50 (Hs-578T) of the same molecule?
Answer: 5.41 µM (inactive)

Question: And the GI50 (IGROV-1)?
Answer: 10.1 µM (inactive)

Question: And the GI50 (K562)?
Answer: 1.84 µM (inactive)

Question: And the GI50 (KM12)?
Answer: 3.82 µM (inactive)

Question: And the GI50 (LOX IMVI)?
Answer: 2.23 µM (inactive)

Question: And the GI50 (M14)?
Answer: 1.79 µM (inactive)

Question: What about the GI50 (MCF7) of the same molecule?
Answer: 7.62 µM (inactive)

Question: And the GI50 (MDA-MB-231)?
Answer: 10.9 µM (inactive)

Question: And the GI50 (MDA-MB-435)?
Answer: 3.79 µM (inactive)

Question: What about the GI50 (MDA-N) of the same molecule?
Answer: 4.37 µM (inactive)

Question: What about the GI50 (MOLT-4) of the same molecule?
Answer: 3.48 µM (inactive)

Question: And the GI50 (Malme-3M)?
Answer: 4.38 µM (inactive)

Question: What about the GI50 (NCI-H226) of the same molecule?
Answer: 15.2 µM (inactive)

Question: What about the GI50 (NCI-H23) of the same molecule?
Answer: 16.6 µM (inactive)

Question: And the GI50 (NCI-H460)?
Answer: 2.51 µM (inactive)

Question: What about the GI50 (NCI-H522) of the same molecule?
Answer: 9.06 µM (inactive)

Question: And the GI50 (NCI/ADR-RES)?
Answer: 13.2 µM (inactive)

Question: What about the GI50 (OVCAR-3) of the same molecule?
Answer: 12 µM (inactive)

Question: And the GI50 (OVCAR-4)?
Answer: 12.4 µM (inactive)

Question: And the GI50 (OVCAR-5)?
Answer: 15 µM (inactive)

Question: What about the GI50 (OVCAR-8) of the same molecule?
Answer: 13.8 µM (inactive)

Question: And the GI50 (PC-3)?
Answer: 6.34 µM (inactive)

Question: What about the GI50 (RPMI-8226) of the same molecule?
Answer: 2.69 µM (inactive)

Question: What about the GI50 (RXF 393) of the same molecule?
Answer: 7.69 µM (inactive)

Question: And the GI50 (SF-268)?
Answer: 14.3 µM (inactive)

Question: What about the GI50 (SF-295) of the same molecule?
Answer: 12.2 µM (inactive)

Question: What about the GI50 (SF-539) of the same molecule?
Answer: 10.5 µM (inactive)

Question: And the GI50 (SK-MEL-28)?
Answer: 1.79 µM (inactive)

Question: What about the GI50 (SK-MEL-2) of the same molecule?
Answer: 7.74 µM (inactive)

Question: What about the GI50 (SK-MEL-5) of the same molecule?
Answer: 1.87 µM (inactive)

Question: What about the GI50 (SK-OV-3) of the same molecule?
Answer: 15.8 µM (inactive)

Question: And the GI50 (SN12C)?
Answer: 12.1 µM (inactive)

Question: What about the GI50 (SNB-19) of the same molecule?
Answer: 12 µM (inactive)

Question: What about the GI50 (SNB-75) of the same molecule?
Answer: 8.38 µM (inactive)

Question: What about the GI50 (SR) of the same molecule?
Answer: 2.43 µM (inactive)

Question: And the GI50 (SW-620)?
Answer: 5.5 µM (inactive)

Question: And the GI50 (T47D)?
Answer: 10.4 µM (inactive)

Question: What about the GI50 (TK-10) of the same molecule?
Answer: 13.2 µM (inactive)

Question: And the GI50 (U-251)?
Answer: 7.76 µM (inactive)

Question: And the GI50 (UACC-257)?
Answer: 2.04 µM (inactive)

Question: What about the GI50 (UACC-62) of the same molecule?
Answer: 1.84 µM (inactive)

Question: What about the GI50 (UO-31) of the same molecule?
Answer: 9.48 µM (inactive)

Question: Which results are given for `O=S(=O)(O)SCCNCCCCCC1CCCCC1`?
Answer: GI50 (786-0): 13.4 µM (inactive); GI50 (A498): 25.1 µM (inactive); GI50 (A549): 7.8 µM (inactive); GI50 (ACHN): 16.1 µM (inactive); GI50 (BT-549): 14.9 µM (inactive); GI50 (CAKI-1): 19 µM (inactive); GI50 (CCRF-CEM): 6.24 µM (inactive); GI50 (COLO 205): 16.6 µM (inactive); GI50 (DU-145): 6.3 µM (inactive); GI50 (EKVX): 9.73 µM (inactive); GI50 (HCC 2998): 5.41 µM (inactive); GI50 (HCT-116): 5.05 µM (inactive); GI50 (HCT-15): 8.77 µM; GI50 (HL-60): 7.29 µM (inactive); GI50 (HOP-62): 7.43 µM (inactive); GI50 (HOP-92): 20.8 µM (inactive); GI50 (HT-29): 6.9 µM (inactive); GI50 (Hs-578T): 14.5 µM (inactive); GI50 (IGROV-1): 8.65 µM (inactive); GI50 (K562): 0.863 µM (active); GI50 (KM12): 2.79 µM (inactive); GI50 (LOX IMVI): 2.14 µM (inactive); GI50 (M14): 4.95 µM (inactive); GI50 (MCF7): 2.75 µM (inactive); GI50 (MDA-MB-231): 14.8 µM (inactive); GI50 (MDA-MB-435): 3.44 µM (inactive); GI50 (MDA-N): 12.8 µM (inactive); GI50 (MOLT-4): 8.05 µM (inactive); GI50 (Malme-3M): 18.8 µM (inactive); GI50 (NCI-H226): 11.5 µM (inactive); GI50 (NCI-H23): 10.4 µM (inactive); GI50 (NCI-H460): 4.72 µM (inactive); GI50 (NCI-H522): 18.4 µM (inactive); GI50 (NCI/ADR-RES): 16.7 µM (inactive); GI50 (OVCAR-3): 5.87 µM (inactive); GI50 (OVCAR-4): 17.2 µM (inactive); GI50 (OVCAR-5): 9.64 µM (inactive); GI50 (OVCAR-8): 10 µM (inactive); GI50 (PC-3): 8.02 µM (inactive); GI50 (RPMI-8226): 17.1 µM (inactive); GI50 (RXF 393): 17.1 µM (inactive); GI50 (SF-268): 3.05 µM (inactive); GI50 (SF-295): 5.86 µM (inactive); GI50 (SF-539): 7.11 µM (inactive); GI50 (SK-MEL-28): 4.26 µM (inactive); GI50 (SK-MEL-2): 2.87 µM (inactive); GI50 (SK-MEL-5): 15.8 µM (inactive); GI50 (SK-OV-3): 15.7 µM (inactive); GI50 (SN12C): 6.12 µM (inactive); GI50 (SNB-19): 5.46 µM (inactive); GI50 (SNB-75): 3.56 µM (inactive); GI50 (SR): 8.99 µM (inactive); GI50 (SW-620): 7.78 µM (inactive); GI50 (T47D): 13.6 µM (inactive); GI50 (TK-10): 9.38 µM (inactive); GI50 (U-251): 5.46 µM (inactive); GI50 (UACC-257): 6.61 µM (inactive); GI50 (UACC-62): 1.88 µM (inactive); GI50 (UO-31): 13.9 µM (inactive)

Reference: ChEMBL document CHEMBL1201862, “PubChem BioAssay data set” (2004)
